From patent publication US20250091989A1, “SMALL MOLECULE PROTEIN SYNTHESIS MODULATORS” (Interdict Bio, Inc., priority 2023, published 2025)
Counter-ions that a name gives are not always drawn.

Experiments:
Format in all cases: biochemical
Details in all cases: HeLa S3 lysate, sfGFP/mCherry ratio, 2 hrs at 30° C.
[1] = system: ALK; test: In vitro transcription-translation (IVTT) reporter assay, ALK test sequence
Summary of the method: (§1)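 Coupled transcription-translation in HeLa S3 lysate with reporter plasmids encoding mCherry-P2A-3×FLAG-TEST-sfGFP behind an EMCV IRES. Compounds were half-log titrated (30 μM-0.1 μM in DMSO dilution plate) into master mix, then DNA was added. Reactions ran 2 hrs at 30° C, were PBS-quenched and read for fluorescence.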

[2] = system: MYC; test: In vitro transcription-translation (IVTT) reporter assay, MYC test sequence
Summary of the method: as §1

[3] = system: CCND1; test: In vitro transcription-translation (IVTT) reporter assay, CCND1 test sequence
Text: All reporter constructs have been cloned into the pT7CFE1-CHis plasmid (ThermoFisher #88860) using Gibson assembly procedures (NEB #E2611L). The parental pT7CFE1-CHis plasmid contains an EMCV IRES at the 5′UTR for translation initiation, a multiple-cloning site (MCS) for gene insertion, an optional C-terminal His-epitope tag, and polyA sequence in the 3′UTR to regulate mRNA stability. All reporters are designed to be inserted at the MCS to include a red fluorescent protein (mCherry), P2A self-cleaving peptide which releases the preceding mCherry protein product, and a fusion open reading frame containing a 3×FLAG epitope, a peptide sequence of interest (TEST), and green fluorescent protein (sfGFP).
Construct Plasmid Preparation: All plasmids are isolated from MACH1 cells (ThermoFisher) grown overnight in ampicillin-containing luria broth, and purified using ZymoPure Express Plasmid Midiprep Kit (Zymo Research). Constructs are sequenced verified and diluted to a working concentration of 110 ng/μL.
HeLa S3 Lysate Preparation: HeLa S3 cell pellets are acquired from Ipracell/Ipratech (Belgium) and shipped as 4 mL frozen cell pellets on dry ice for storage at −80° C. until use. The procedure for lysate preparation is as follows. Prepare 1× Lysis Buffer, cold and stored on ice:
Each preparation takes 8 cell pellets (4 ml packed volume each, approximately 1.0×10^9 cells per pellet). Thaw cell pellets from −80° C. on ice for 90 mins. Lay pellets horizontally on top of the ice and rotate every 30 mins to ensure even thawing. Once thawed, add 4 mL of cold lysis buffer to each pellet, and using a serological pipet, gently pipet up and down to break up clumps. Incubate resuspended cells in ice for an additional 30 mins (plunged into ice). During 30 min incubation, rinse and RNase-zap (Ambion) glass dounces (use loose pestle “A”), gently dry and place on ice until needed. Prepare RNase-free Eppendorf tubes for spinning and for batch storage. Add batch labels to 1.5-1.7 mL RNase-free microcentrifuge tubes (labeling scheme below). Each batch will have an extra 1.5-1.7 mL RNase-free microcentrifuge tube for 40 μL of lysate, label the top of this tube (labeling scheme below). After 30 min incubation, transfer all 8 mL of cell pellet to dounce. Cell lysis is complete after douncing 100 times. Aliquot cell lysis into 1.5-1.7 mL temporary-microcentrifuge tubes. Place tubes in centrifuge with “fins” out, and spin at 1,200 xg for 5 mins. After the first spin use a 1 mL pipet to resuspend each tube and repeat spin. This acts as an additional lysis step, is more vigorous and increases lysate yield. During second spin get liquid N2 and a fresh conical tube on ice.
After spin is complete, transfer supernatant (lysate) from microcentrifuge tubes into the 50 mL conical tube and keep on ice. Repeat steps 10-14 for all other cell pellets until completed. Once all cell lysate has been transferred to the 50 mL conical tube pipet to mix so the solution is homogenous. Transfer 1 mL of lysate into batch-labeled microcentrifuge tubes and flash freeze in liquid nitrogen. Be sure to pipet up and down to mix throughout transfer step. Place all tubes in the […] for long-term storage.
In vitro transcription-translation assay setup: Each assay includes a master mix containing lysate and shared components, a 96-well plate containing compound titrations for testing, a 96-well DNA plate with reporter constructs to be tested, 96-well skirted PCR plates, and 96-well flat-bottom, black, fluorescent assay plates. […]

[4] = system: KRAS G12D; test: In vitro transcription-translation (IVTT) reporter assay, KRAS G12D test sequence
Summary of the method: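 Cell-free HeLa S3 lysate transcription-translation of reporter plasmids encoding mCherry-P2A-3×FLAG-test peptide (CCND1, KRAS G12D, MCL-1 or BCL-2)-sfGFP under EMCV IRES. Half-log compound dilutions (30 μM-0.1 μM, prepared in DMSO); reactions 2 h at 30 °C, quenched with PBS for fluorescence read.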

SMILES | IC50 [1] [µM] | IC50 [2] [µM] | IC50 [3] [µM] | IC50 [4] [µM]
COc1ccc(C[C@H]2NC[C@H](O)[C@H]2OC(=O)Cc2ccncc2)cc1 [V187056] | < 10 | < 10 | < 10 | 
COc1ccc(C[C@H]2NC[C@H](O)[C@H]2OC(=O)CN2CC(F)(F)C2)cc1 [V187045, (2R,3S,4S)-4-hydroxy-2-[(4-methoxyphenyl)methyl]pyrrolidin-3-yl 2-(3,3-difluoroazetidin-1-yl)acetate; trifluoroacetic acid] | < 10 |  | < 10 | 
CC(=O)O[C@@H]1[C@@H](O)CN[C@@H]1Cc1ccc(-c2cn(-c3ccnc(N)n3)nn2)cc1 [V188057, (2R,3S,4S)-2-({4-[1-(2-aminopyrimidin-4-yl)-1,2,3-triazol-4-yl]phenyl}methyl)-4-hydroxypyrrolidin-3-yl acetate] |  | < 10 | < 10 | 
COc1ccc(C[C@H]2NC[C@H](O)[C@H]2OC(=O)CCCCC(C)C)cc1 [V186779] | < 10 | < 10 |  | < 10
COc1ccc(C[C@H]2NC[C@H](O)[C@H]2OC(=O)Cc2ccc(OC(F)(F)F)cc2)cc1 [V187159, (2R,3S,4S)-4-hydroxy-2-[(4-methoxyphenyl)methyl]pyrrolidin-3-yl 2-[4-(trifluoromethoxy)phenyl]acetate] | 10 to 20 | 10 to 20 |  | > 30
COc1ccc(C[C@H]2NC[C@H](O)[C@H]2OC(=O)C[C@H]2CCNC2)cc1 [V187689] | < 10 | < 10 |  | < 10
COc1ccc(C[C@H]2NC[C@H](O)[C@H]2OC(=O)C2CCO2)cc1 (stereo partly drawn) [V186865, (2R,3S,4S)-4-hydroxy-2-(4-methoxybenzyl)pyrrolidin-3-yl oxetane-2-carboxylate FA salt] | < 10 | < 10 |  | > 30
COc1ccc(C[C@H]2NC[C@H](O)[C@H]2OC(=O)C2CC(F)(F)C2)cc1 [V186775, (2R,3S,4S)-4-hydroxy-2-[(4-methoxyphenyl)methyl]pyrrolidin-3-yl 3,3-difluorocyclobutane-1-carboxylate] | < 10 | < 10 |  | 20 to 30
COc1ccc(C[C@H]2NC[C@H](O)[C@H]2OC(=O)c2ccc(C(=O)C(F)(F)F)cc2)cc1 [V0092, (2R,3S,4S)-4-hydroxy-2-[(4-methoxyphenyl)methyl]pyrrolidin-3-yl 4-(2,2,2-trifluoroacetyl)benzoate] | > 30 | > 30 |  | > 30
COc1ccc(C[C@H]2NC[C@H](O)[C@H]2OC(=O)CC2CC2)cc1 [V0113, (2R,3S,4S)-4-hydroxy-2-[(4-methoxyphenyl)methyl]pyrrolidin-3-yl 2-cyclopropylacetate] | < 10 | < 10 |  | < 10
CCC1(C(=O)O[C@@H]2[C@@H](O)CN[C@@H]2Cc2ccc(OC)cc2)COC1 [V186781, (2R,3S,4S)-4-hydroxy-2-[(4-methoxyphenyl)methyl]pyrrolidin-3-yl 3-ethyloxetane-3-carboxylate] | > 30 | > 30 |  | > 30
COc1ccc(C[C@H]2NC[C@H](O)[C@H]2OC(=O)COCc2ccc3nsnc3c2)cc1 [V187072, (2R,3S,4S)-4-hydroxy-2-[(4-methoxyphenyl)methyl]pyrrolidin-3-yl 2-(2,1,3-benzothiadiazol-5-ylmethoxy)acetate; trifluoroacetic acid] | < 10 | < 10 |  | < 10
COc1ccc(C[C@H]2NC[C@H](O)[C@H]2OC(=O)CC[C@@H]2NC(=O)C3(CNC3)NC2=O)cc1 [V187324, (2R,3S,4S)-4-hydroxy-2-[(4-methoxyphenyl)methyl]pyrrolidin-3-yl 3-[(7S)-6,9-dioxo-2,5,8-triazaspiro[3.5]nonan-7-yl]propanoate] | > 30 | 20 to 30 |  | > 30
COc1ccc(C[C@H]2NC[C@H](O)[C@H]2OC(=O)CCC2CC2)cc1 [V187063, (2R,3S,4S)-4-hydroxy-2-[(4-methoxyphenyl)methyl]pyrrolidin-3-yl 3-cyclopropylpropanoate; trifluoroacetic acid] | < 10 | < 10 |  | < 10
COc1ccc(C[C@H]2NC[C@H](O)[C@H]2OC(=O)CCN2CC(=O)NC(=O)C2)cc1 [V186859, (2R,3S,4S)-4-hydroxy-2-[(4-methoxyphenyl)methyl]pyrrolidin-3-yl 3-(3,5-dioxopiperazin-1-yl)propanoate; trifluoroacetic acid] | < 10 | < 10 |  | < 10
COc1ccc(C[C@H]2NC[C@H](O)[C@H]2OC(=O)Cc2cc3ccccc3s2)cc1 [V187053, (2R,3S,4S)-4-hydroxy-2-[(4-methoxyphenyl)methyl]pyrrolidin-3-yl 2-(1-benzothiophen-2-yl)acetate] | < 10 | < 10 |  | < 10
COc1ccc(C[C@H]2NC[C@H](O)[C@H]2OC(=O)Cc2ccc3ccccc3c2)cc1 [V187123, (2R,3S,4S)-4-hydroxy-2-[(4-methoxyphenyl)methyl]pyrrolidin-3-yl 2-(naphthalen-2-yl)acetate; trifluoroacetic acid] | < 10 | 10 to 20 |  | > 30
C=C(F)C(=O)O[C@@H]1[C@@H](O)CN[C@@H]1Cc1ccc(OC)cc1 [V0081, (2R,3S,4S)-4-hydroxy-2-[(4-methoxyphenyl)methyl]pyrrolidin-3-yl 2-fluoroprop-2-enoate] | > 30 | > 30 |  | > 30
COc1ccc(C[C@H]2NC[C@H](O)[C@H]2OC(=O)Cc2cccnc2)cc1 [V187057, (2R,3S,4S)-4-hydroxy-2-[(4-methoxyphenyl)methyl]pyrrolidin-3-yl 2-(pyridin-3-yl)acetate] | < 10 | < 10 |  | < 10
COc1ccc(C[C@H]2NC[C@H](O)[C@H]2OC(=O)Cc2nnc(N)s2)cc1 [V187048, (2R,3S,4S)-4-hydroxy-2-[(4-methoxyphenyl)methyl]pyrrolidin-3-yl 2-(5-amino-1,3,4-thiadiazol-2-yl)acetate] | < 10 | < 10 |  | < 10
CC(=O)O[C@@H]1[C@@H](O)CN[C@@H]1Cc1ccc(Br)cc1 [V187010, (2R,3S,4S)-2-[(4-bromophenyl)methyl]-4-hydroxypyrrolidin-3-yl acetate; trifluoroacetic acid] | < 10 | < 10 |  | < 10
CC(=O)O[C@@H]1[C@@H](O)CN[C@@H]1Cc1ccc(-c2cn(-c3ccccc3)nn2)cc1 [V187731] | < 10 | < 10 |  | < 10
COc1ccc(C[C@H]2NC[C@H](O)[C@H]2OC(=O)CCN2CC(=O)NCC2=O)cc1 [V186849, (2R,3S,4S)-4-hydroxy-2-[(4-methoxyphenyl)methyl]pyrrolidin-3-yl 3-(2,5-dioxopiperazin-1-yl)propanoate] | < 10 | 10 to 20 |  | > 30
COc1ccc(C[C@H]2NC[C@H](O)[C@H]2OC(=O)CCC2CCOCC2)cc1 [V186990, (2R,3S,4S)-4-hydroxy-2-[(4-methoxyphenyl)methyl]pyrrolidin-3-yl 3-(oxan-4-yl)propanoate; trifluoroacetic acid] | < 10 | < 10 |  | < 10
